Reference: patent publication US20240207237A1, “METHOD OF SCREENING FOR DRUG COMBINATION FOR COLORECTAL CARCINOMA TREATMENT, DRUG COMBINATION AND USE THEREOF” (National Tsing Hua University, priority 2022, published 2024)

The compounds below were run on HCT116 cell lines (assay: IC50 and cell viability assay of clinical drugs (CCK-8)). Conditions: CCK-8, absorbance 450 nm, triplicate, mean ± SD, Resistance = drug does not affect cell viability.
Assay type: cell-based, human
Description: All the mediums were purchased from […].
To determine suitable cell seeding number for each cell line, different number (300, 500, 1000, 3000) of cells/wells were seeded in a 96-well plate. A cell viability was determined using a real-time viability assay (RealTime-Glo™ Assay Reagent). Luminescence intensities were measured at different time points (4, 8, 16, 24, 36, 48, 60 and 72 hours) to evaluate a cell growth curve. To establish IC50 values of ten drugs on each cell line, gradient concentrations of each drug were prepared. […] The cell viability was measured with Cell Counting Kit 8 (e.g., CCK-8 purchased from Dojindo molecular technologies, Japan), and cell viability assay was performed after 2 hours of incubation by measuring the absorbances at 450 nm. Relative cell numbers were determined as compared with the control cells. All experiments were performed in triplicate manner, and data were represented as expressed as mean±standard deviation (mean±SD).

IC50 (μM) ± SD	Compound	IC50 [µM]
Resistance	Bevacizumab [Bevacizumab (B)]	–
Resistance	Panitumumab [Panitumumab (P)]	–
–	O=C1[O][Pt]2([NH][C@@H]3CCCC[C@H]3[NH]2)[O]C1=O [Oxaliplatin (O), Oxaliplatin]	10.3 ± 3.27
Resistance	Nc1nc(=O)c2c([nH]1)NCC(CNc1ccc(C(=O)N[C@@H](CCC(=O)O)C(=O)O)cc1)N2C=O (mixture of isomers) [Folinic acid (F), Folinic acid]	–

Same assay, conditions: Homo sapiens, HCT-116, CCK-8, absorbance 450 nm, triplicate, mean ± SD, Resistance = drug does not affect cell viability

Compound	IC50 [µM]
Nc1ccn([C@@H]2O[C@H](CO)[C@@H](O)C2(F)F)c(=O)n1 [Gemcitabine (G), Gemcitabine]	0.183
O=c1[nH]cc(F)c(=O)[nH]1 [5-FU (U), 5-Fluorouracil]	8.56 ± 0.897

Second part, the compound after the results:

IC50 [µM]	Compound
0.01 ± 0.03	CCc1c2c(nc3ccc(OC(=O)N4CCC(N5CCCCC5)CC4)cc13)-c1cc3c(c(=O)n1C2)COC(=O)[C@]3(O)CC [Irinotecan (I), Irinotecan]
5.89 ± 0.713	CNC(=O)c1cc(Oc2ccc(NC(=O)Nc3ccc(Cl)c(C(F)(F)F)c3)c(F)c2)ccn1 [Regorafenib (R), Regorafenib]
28.5 ± 0.802	COc1cc2nccc(Oc3ccc(NC(=O)NC4CC4)c(Cl)c3)c2cc1C(N)=O [Lenvatinib (L), Lenvatinib]
